The values that follow come from PMC6272348, “Four New Pentasaccharide Resin Glycosides from Ipomoea cairica with Strong α-Glucosidase Inhibitory Activity” (Molecules, 2015).

The target in this test is α-glucosidase. The test is described as follows: α-glucosidase inhibition assay (PNPG substrate). As to conditions: pH 6.8, 37 °C, 10 min, 0.01 M PNPG substrate, 1 U/mL enzyme; means ± SD of three independent replicates; read-out: α-Glucosidase Inhibition Contstant (IC50). Format: biochemical. The procedure:
The a-glucosidase inhibition assay was performed according to a slightly modified method of Pierre et al.. α-Glucosidase was purchased from Sigma (San Francisco, CA, USA, No. M0035-15). The inhibition was measured spectrophotometrically at pH 6.8 and at 37 °C for 10 min, using 0.01 M p-nitrophenyl a-D-glucopyranoside (PNPG) from Sigma (No. M0103) as a substrate and 1 U/mL of enzyme, in 0.067 M KH2PO4-Na2HPO4 buffer. […] The increment in absorption at 410 nm due to the hydrolysis of PNPG by α-glucosidase was monitored continuously with an automatic multi-functional microplate reader.
For orientation: IC50 means the concentration that gives 50% inhibition. As for `CCCCCC1CCCCCCCCCC(=O)OC2C(OC(C)C(OC3OC(C)C(OC4OC(C)C(OC(=O)C(C)CC)C(OC(=O)C=Cc5ccccc5)C4O)C(OC4OC(C)C(O)C(O)C4O)C3OC(=O)C(C)CC)C2O)OC2C(O1)OC(CO)C(O)C2O` [Compound 1, (S)-jalapinolic acid 11-O-α-L-rhamnopyranosyl-(1→3)-O-[3-O-trans-cinnamoyl-4-O-(S)-2-methyl-butyryl-α-L-rhamnopyranosyl-(1→4)]-O-[2-O-(S)-2-methylbutyryl]-α-L-rhamnopyranosyl-(1→4)-O-α-L-rhamnopyranosyl-(1→2)-O-β-D-glucopyranoside, intramolecular 1,2''-ester], the IC50 was 21.4 ± 2.9 µM. With `CCCCCC1CCCCCCCCCC(=O)OC2C(OC(C)C(OC3OC(C)C(OC4OC(C)C(OC(=O)C(C)CC)C(OC(=O)C=Cc5ccccc5)C4O)C(OC4OC(C)C(O)C(O)C4O)C3OC(=O)CCC)C2O)OC2C(O1)OC(CO)C(O)C2O` (stereo not shown) [Compound 2, Cairicoside II] the figure was 26.2 ± 4.6 µM. On to `CCCCCCCC(=O)OC1C(OC2C(C)OC3OC4C(OC(CCCCC)CCCCCCCCCC(=O)OC3C2O)OC(CO)C(O)C4O)OC(C)C(OC2OC(C)C(OC(=O)C(C)CC)C(OC(=O)C=Cc3ccccc3)C2O)C1OC1OC(C)C(O)C(O)C1O` (stereo not shown) [Compound 3, Cairicoside III], for which the IC50 came out at 30.4 ± 3.9 µM. With `CCCCCCCCCC(=O)OC1C(OC2C(C)OC3OC4C(OC(CCCCC)CCCCCCCCCC(=O)OC3C2O)OC(CO)C(O)C4O)OC(C)C(OC2OC(C)C(OC(=O)C(C)CC)C(OC(=O)C=Cc3ccccc3)C2O)C1OC1OC(C)C(O)C(O)C1O` (stereo not shown) [Compound 4, Cairicoside IV] the figure was 28.9 ± 1.4 µM.
